Assays:
yellow nutsedge = assay: Test C pre-/postemergence test; type: in vivo, Cyperus esculentus; conditions: for Plant response rating, Nutsedge, Yellow: 31 g ai/ha, scale 0 to 100 (0 no effect, 100 complete control)
Method in brief: (§1)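 Compounds in a non-phytotoxic solvent with surfactant applied preemergence to seeded pots and, at the same time, postemergence to plants 2–18 cm tall (1- to 4-leaf stage). Paddy tests: pots flooded to 3 cm, compound applied into the water, depth held throughout.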

lambsquarters = assay: Test C pre-/postemergence test; type: in vivo, Chenopodium album; conditions: for Plant response rating, Lambsquarters: 31 g ai/ha, scale 0 to 100 (0 no effect, 100 complete control)
Method in brief: as §1

wild oat = assay: Test C pre-/postemergence test; type: in vivo, Avena fatua; conditions: for Plant response rating, Oat, Wild: 31 g ai/ha, scale 0 to 100 (0 no effect, 100 complete control)
Method in brief: as §1

kochia = assay: Test C pre-/postemergence test; type: in vivo, Kochia scoparia; conditions: for Plant response rating, Kochia: 31 g ai/ha, scale 0 to 100 (0 no effect, 100 complete control)
Method in brief: as §1

woolly cupgrass = assay: Test C pre-/postemergence test; type: in vivo, Eriochloa villosa; conditions: for Plant response rating, Cupgrass, Woolly: 31 g ai/ha, scale 0 to 100 (0 no effect, 100 complete control)
Method in brief: as §1

green foxtail = assay: Test C pre-/postemergence test; type: in vivo, Setaria viridis; conditions: for Plant response rating, Foxtail, Green: 31 g ai/ha, scale 0 to 100 (0 no effect, 100 complete control)
Method in brief: as §1

soybean = assay: Test C pre-/postemergence test; type: in vivo, Glycine max; conditions: for Plant response rating, Soybean: 31 g ai/ha, scale 0 to 100 (0 no effect, 100 complete control)
Method in brief: as §1

downy brome = assay: Test C pre-/postemergence test; type: in vivo, Bromus tectorum; conditions: for Plant response rating, Bromegrass, Downy: 31 g ai/ha, scale 0 to 100 (0 no effect, 100 complete control)
Method in brief: as §1

bermudagrass = assay: Test C pre-/postemergence test; type: in vivo, Cynodon dactylon; conditions: for Plant response rating, Bermudagrass: 31 g ai/ha
Method in brief: as §1

cocklebur = assay: Test C pre-/postemergence test; type: in vivo, Xanthium strumarium; conditions: for Plant response rating, Cocklebur: 31 g ai/ha, scale 0 to 100 (0 no effect, 100 complete control)
Method in brief: as §1

catchweed bedstraw = assay: Test C pre-/postemergence test; type: in vivo, Galium aparine; conditions: for Plant response rating, Galium: 31 g ai/ha, scale 0 to 100 (0 no effect, 100 complete control)
Method in brief: as §1

redroot pigweed = assay: Test A pre-/postemergence greenhouse test; type: in vivo, Amaranthus retroflexus; conditions: for Plant response rating, Pigweed: 0 to 100 scale where 0 is no effect and 100 is complete control; for Pigweed plant response rating: 0 to 100 scale
Method in brief: (§2)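 Seeds sown in a loam soil–sand blend got a preemergence directed soil spray of compound in a non-phytotoxic solvent mixture containing surfactant. Postemergence sprays of the same formulation went at the same time onto plants 2–10 cm tall at the one- to two-leaf stage. Injury was scored visually against untreated controls after about ten days in the greenhouse.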

blackgrass = assay: Test C pre-/postemergence test; type: in vivo, Alopecurus myosuroides; conditions: for Plant response rating, Blackgrass: 31 g ai/ha, scale 0 to 100 (0 no effect, 100 complete control)
Method in brief: as §1

morningglory = assay: Test A pre-/postemergence greenhouse test; type: in vivo, Ipomoea spp.; conditions: for Plant response rating, Morningglory: 0 to 100 scale where 0 is no effect and 100 is complete control; for Morningglory plant response rating: 0 to 100 scale
Method in brief: as §2

rice = assay: Test C flooded paddy test; type: in vivo, Oryza sativa; conditions: Flood
Method in brief: (§3)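 Test compounds are applied straight into paddy water held 3 cm above the soil surface, with that flood maintained for the whole test. After 13 to 15 days in the greenhouse, each species is scored visually relative to controls.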

duck salad = assay: Test C flooded paddy test; type: in vivo, Heteranthera limosa; conditions: Flood
Method in brief: as §3

[1] = 62 g ai/ha, Preemergence, scale 0 to 100
[2] = 125 g ai/ha, preemergence, scale 0 (no effect) to 100 (complete control)
[3] = preemergence, 250 g ai/ha, scale 0 (no effect) to 100 (complete control)
[4] = 62 g ai/ha, Preemergence, scale 0 to 100 (0 no effect, 100 complete control)
[5] = Preemergence, scale 0 to 100 (0 no effect, 100 complete control)
[6] = Postemergence, 500 g ai/ha, 0 is no effect, 100 is complete control
[7] = Preemergence, 125 g ai/ha, 0 no effect, 100 complete control
[8] = 62 g ai/ha, scale 0 to 100, 0 no effect, 100 complete control, 13 to 15 days
[9] = 250 g ai/ha, scale 0 to 100, 0 no effect, 100 complete control, 13 to 15 days
[10] = Preemergence, 500 g ai/ha, 0 no effect, 100 complete control
[11] = 62 g ai/ha, scale 0 to 100 (0 no effect, 100 complete control)

Cn1nc(C(F)(F)F)c(C(Cl)S(=O)(=O)c2cccc[n+]2[O-])c1OC(F)F (stereo not shown) [Compound 51]
Nutsedge, Yellow plant response rating (yellow nutsedge; [1]): 40
Nutsedge, Yellow plant response rating (yellow nutsedge; [2]): 40
Plant response rating, Nutsedge, Yellow (yellow nutsedge; Preemergence): 0
Nutsedge, Yellow plant response rating (yellow nutsedge; [3]): 100
Lambsquarters plant response rating (lambsquarters; [1]): 100
Lambsquarters plant response rating (lambsquarters; [2]): 100
Plant response rating, Lambsquarters (lambsquarters; Preemergence): 100
Lambsquarters plant response rating (lambsquarters; [3]): 100
Oat, Wild plant response rating (wild oat; [1]): 0
Oat, Wild plant response rating (wild oat; [2]): 10
Plant response rating, Oat, Wild (wild oat; Preemergence): 0
Oat, Wild plant response rating (wild oat; [3]): 50
Kochia plant response rating (kochia; [1]): 100
Kochia plant response rating (kochia; [2]): 100
Plant response rating, Kochia (kochia; Preemergence): 65
Kochia plant response rating (kochia; [3]): 100
Cupgrass, Woolly plant response rating (woolly cupgrass; [1]): 70
Cupgrass, Woolly plant response rating (woolly cupgrass; [2]): 90
Plant response rating, Cupgrass, Woolly (woolly cupgrass; Preemergence): 0
Cupgrass, Woolly plant response rating (woolly cupgrass; [3]): 100
Foxtail, Green plant response rating (green foxtail; [1]): 85
Foxtail, Green plant response rating (green foxtail; [2]): 85
Plant response rating, Foxtail, Green (green foxtail; Preemergence): 65
Foxtail, Green plant response rating (green foxtail; [3]): 100
Soybean plant response rating (soybean; [1]): 0
Soybean plant response rating (soybean; [2]): 0
Plant response rating, Soybean (soybean; Preemergence): 0
Soybean plant response rating (soybean; [3]): 0
Bromegrass, Downy plant response rating (downy brome; [1]): 0
Bromegrass, Downy plant response rating (downy brome; [2]): 0
Plant response rating, Bromegrass, Downy (downy brome; Preemergence): 0
Bromegrass, Downy plant response rating (downy brome; [3]): 0
Bermudagrass plant response rating (bermudagrass; [4]): 100
Bermudagrass plant response rating (bermudagrass; [2]): 100
Plant response rating, Bermudagrass (bermudagrass; [5]): 90
Bermudagrass plant response rating (bermudagrass; [3]): 100
Cocklebur plant response rating (cocklebur; [1]): 0
Cocklebur plant response rating (cocklebur; [2]): 0
Plant response rating, Cocklebur (cocklebur; Preemergence): 0
Cocklebur plant response rating (cocklebur; [3]): 0
Galium plant response rating (catchweed bedstraw; [1]): 85
Galium plant response rating (catchweed bedstraw; [2]): 95
Plant response rating, Galium (catchweed bedstraw; Preemergence): 80
Galium plant response rating (catchweed bedstraw; [3]): 95
Plant response rating, Pigweed (redroot pigweed; Postemergence, 125 g ai/ha): 60
Pigweed plant response rating (redroot pigweed; [6]): 70
Pigweed plant response rating (redroot pigweed; [7]): 100
Plant response rating, Pigweed (redroot pigweed; Preemergence, 500 g ai/ha): 100
Blackgrass plant response rating (blackgrass; [1]): 90
Blackgrass plant response rating (blackgrass; [2]): 90
Plant response rating, Blackgrass (blackgrass; Preemergence): 80
Blackgrass plant response rating (blackgrass; [3]): 100
Plant response rating, Morningglory (morningglory; Postemergence, 125 g ai/ha): 60
Morningglory plant response rating (morningglory; [6]): 60
Morningglory plant response rating (morningglory; [7]): 50
Plant response rating, Morningglory (morningglory; Preemergence, 500 g ai/ha): 70
Plant response rating, Rice (rice; [8]): 25
Plant response rating, Rice (rice; [9]): 55
Plant response rating, Ducksalad (duck salad; [8]): 35
Plant response rating, Ducksalad (duck salad; [9]): 80

CCc1cc[n+]([O-])c(S(=O)(=O)Cc2c(C(F)(F)F)nn(C)c2OC(F)F)c1 [Compound 102]
Nutsedge, Yellow plant response rating (yellow nutsedge; [1]): 50
Nutsedge, Yellow plant response rating (yellow nutsedge; [2]): 50
Plant response rating, Nutsedge, Yellow (yellow nutsedge; Preemergence): 0
Nutsedge, Yellow plant response rating (yellow nutsedge; [3]): 85
Lambsquarters plant response rating (lambsquarters; [1]): 80
Lambsquarters plant response rating (lambsquarters; [2]): 100
Plant response rating, Lambsquarters (lambsquarters; Preemergence): 40
Lambsquarters plant response rating (lambsquarters; [3]): 100
Oat, Wild plant response rating (wild oat; [1]): 70
Oat, Wild plant response rating (wild oat; [2]): 90
Plant response rating, Oat, Wild (wild oat; Preemergence): 35
Oat, Wild plant response rating (wild oat; [3]): 95
Kochia plant response rating (kochia; [1]): 70
Kochia plant response rating (kochia; [2]): 100
Plant response rating, Kochia (kochia; Preemergence): 70
Kochia plant response rating (kochia; [3]): 100
Cupgrass, Woolly plant response rating (woolly cupgrass; [1]): 85
Cupgrass, Woolly plant response rating (woolly cupgrass; [2]): 85
Plant response rating, Cupgrass, Woolly (woolly cupgrass; Preemergence): 50
Cupgrass, Woolly plant response rating (woolly cupgrass; [3]): 95
Foxtail, Green plant response rating (green foxtail; [1]): 95
Foxtail, Green plant response rating (green foxtail; [2]): 98
Plant response rating, Foxtail, Green (green foxtail; Preemergence): 85
Foxtail, Green plant response rating (green foxtail; [3]): 100
Soybean plant response rating (soybean; [2]): 65
Plant response rating, Soybean (soybean; Preemergence): 50
Soybean plant response rating (soybean; [3]): 80
Bromegrass, Downy plant response rating (downy brome; [1]): 100
Bromegrass, Downy plant response rating (downy brome; [2]): 100
Plant response rating, Bromegrass, Downy (downy brome; Preemergence): 50
Bromegrass, Downy plant response rating (downy brome; [3]): 100
Bermudagrass plant response rating (bermudagrass; [4]): 85
Bermudagrass plant response rating (bermudagrass; [2]): 100
Plant response rating, Bermudagrass (bermudagrass; [5]): 85
Bermudagrass plant response rating (bermudagrass; [3]): 100
Cocklebur plant response rating (cocklebur; [1]): 0
Cocklebur plant response rating (cocklebur; [2]): 0
Plant response rating, Cocklebur (cocklebur; Preemergence): 0
Cocklebur plant response rating (cocklebur; [3]): 0
Galium plant response rating (catchweed bedstraw; [1]): 95
Galium plant response rating (catchweed bedstraw; [2]): 100
Plant response rating, Galium (catchweed bedstraw; Preemergence): 30
Galium plant response rating (catchweed bedstraw; [3]): 100
Plant response rating, Pigweed (redroot pigweed; Postemergence, 125 g ai/ha): 70
Pigweed plant response rating (redroot pigweed; [6]): 100
Pigweed plant response rating (redroot pigweed; [7]): 100
Pigweed plant response rating (redroot pigweed; [10]): 100
Blackgrass plant response rating (blackgrass; [1]): 80
Blackgrass plant response rating (blackgrass; [2]): 80
Plant response rating, Blackgrass (blackgrass; Preemergence): 10
Plant response rating, Morningglory (morningglory; Postemergence, 125 g ai/ha): 50
Morningglory plant response rating (morningglory; [6]): 100
Morningglory plant response rating (morningglory; [7]): 100
Morningglory plant response rating (morningglory; [10]): 100
Plant response rating, Rice (rice; [11]): 0
Plant response rating, Rice (rice; [9]): 20
Plant response rating, Ducksalad (duck salad; [11]): 0
Plant response rating, Ducksalad (duck salad; [9]): 80

From US20100298141A1, “SUBSTITUTED PYRIDINE N-OXIDE HERBICIDES” (E. I. DU PONT DE NEMOURS AND COMPANY, priority 2007, published 2010)
